Experimental data reported in patent publication US20190008919A1, “ETA RECEPTOR ANTAGONISTS AND METHODS OF USING THE SAME TO TREAT CARDIOVASCULAR DISORDERS AND DISEASE” (priority 2017, published 2019).
Non-standard residues stand in square brackets, D forms with d. Residues, ends and D or L forms follow the SMILES beside them.

How the values were obtained:
[1] = test system: aortic stiffening-induced hypertension rat model; assay: Pressure, pulse wave velocity and peripheral flow measurement in aortic NCR (aortic stiffening-induced hypertension) rats; format: in vivo, Wistar rats
Protocol: (§1) Twenty seven Wistar rats at age of 17-18 weeks were randomly divided into three groups. Group 1 (n=10) underwent aortic NCR for 12 weeks and was terminated at the end of 12 weeks. Group 2 (n=9) underwent aortic NCR for 12 weeks, then received continuous BQ-123 infusion for 3 weeks. The animals were terminated at the end of 15 weeks. Group 3 (n=8) was used as the sham-operated control for groups 1 and 2. All animal experiments were performed in accordance with national and local ethical guidelines, including the Institute of Laboratory Animal Research guidelines, Public Health Service policy, the Animal Welfare Act, as approved by Institutional Animal Care and Use Committee at California Medical Innovations Institute, San Diego.
Animals were anesthetized with 1-2% isoflurane by air inhalation. A pressure catheter (Mikro-tip SPR-407, Millar Instruments, Houston, Tex.,) was inserted in the aortic arch (proximal site) via the right carotid artery. Heparin (200 U/ml) was used to prevent blood clots in the vessels. Another pressure transducer (Mikro-tip SPR-671) was advanced retrogradely into the abdominal aorta (distal site) via the right femoral artery. The central and peripheral aortic blood pressure waveforms were recorded from these two locations simultaneously during the procedure. A branch (400˜500 μm in diameter) of the left femoral artery was exposed carefully. A flow probe (0.5 mm ID) connected to a flow meter (Transonic systems, Ithaca, N.Y.) was then placed around it and local flow rate was recorded for at least 30 minutes. Following the measurement of blood pressure, the small cuts for cannulation on the carotid and femoral arteries were repaired by 11-0 sutures to restore flow.
A laparotomy (about 3.0 cm) was performed. The distal abdominal aorta between renal and common iliac artery was carefully exposed and tissue glue (cyanoacrylate formulation, Dermabond, Ethicon, NJ) was coated over a length of the aorta. After allowing 5-10 minutes for the glue to harden, a stiff coating formed and covered the anterior and bilateral sides of the aorta with an axial length of 3.0-3.5 cm. The sham group underwent an identical surgical procedure, but without application of glue on the aorta (i.e., the same amount of glue was left near the aorta area with no direct contact with the aorta).
(§2) Rats in group 2 received continuous BQ-123 infusion (1 mg/kg/day) for 21 days through Osmotic minipump implantation after 12 weeks of aortic NCR. BQ-123 (Peptides International Inc., Louisville, Ky.) was dissolved in saline containing 0.5% dimethyl sulphoxide (DMSO). The Osmotic minipump (model 2002, Durect Corporation, CA) was subcutaneously implanted on the side of abdomen in rats. Sham rats received continuous saline infusion through Osmotic minipumps for 21 days.
Pulse wave velocity (PWV) calculation is based on the difference in arrival times of the pressure wave at the proximal (aorta arch) and distal (abdominal aorta) locations. Since the pressure transducer is visible on radiographs, the propagation distance between the proximal and distal site was obtained by imaging the animal with the two transducers implantation under an X-ray machine (Philips Fluoroscopy System, FIG. 1). PWV (m/s) was calculated by dividing the propagation distance by the difference among the two arrival times (transit time).
The reverse to forward flow ratio (indicative of the extent of peripheral flow reversal) in peripheral small artery was calculated as: R/F ratio=Qrev/Qfwd×100(%), where Qrev and Qfwd are the reverse and forward peak flow rate, respectively (as shown in FIG. 3A). […]

[2] = test system: peripheral small arteries; assay: Endothelial function of peripheral small arteries (isovolumic myograph, ex vivo) after in vivo treatment; set-up: species or system Wistar rats
Protocol: as §2
(§3) After measurement of pressure and flow from a branch of femoral artery, water-resistant carbon particles were used to mark the same vessel segment (400˜500 μm in diameter) to measure axial changes as described in a publication by Guo et al. The external geometry of the arterial segment was photographed to obtain the outer diameter and in vivo axial length with the aid of a dissecting microscope. The arterial segment was than harvested for endothelial function and mechanical testing and histological analysis. The heart was harvested to calculate the wet weight.
An isovolumic myograph recently developed by our group was used to evaluate the endothelium-dependent vasorelaxation. The small peripheral arterial segment was cannulated on both ends in a physiological bath with HEPES physiologic saline solution (HEPES-PSS, concentration in mmol/l: 142 NaCl, 4.7 KCl, 2.7 sodium HEPES, 3 HEPES acid, 0.15 NaHPO4, 1.17 MgSO4, 2.79 CaCl^2, and 5.5 glucose, solution gassed by 95% O2 plus 5% CO2) and stretched to in situ length. The pressure and external diameter were measured with a pressure transducer (Mikro-Tip SPR-524; Millar Instruments) and a digital diameter tracking (DiamTrak v3+; Australia), respectively. The vessel segment was pre-constricted with phenylephrine (PE) by a series of doses (10^−10 to 10^−5 mol/L in the PSS), and then relaxed with acetylcholine (ACh) by a series of doses: 10^−10 to 10^−5 mol/L. The endothelium-independent relaxation to sodium nitroprusside (SNP, 10^−5 mol/L) was measured to verify the sensitivity of vascular smooth muscle to NO. The overall contractility of vessel was tested with potassium chloride (KCl) at 60 mmol/L. Contraction was expressed as percentage of the response to KCl. Relaxation was expressed as percentage of pre-contraction to PE.
Results were shown as mean±standard error of mean (mean±SEM). The significance of the differences between two groups was evaluated by either t-test or One-way ANOVA. For each dose-response curve to agents, the maximum effect (Emax) and bolus dose that produced half-maximal relaxation or contraction (expressed as pED50) were obtained by fitting the experimental data with a sigmoidal dose response curve. A least-squares fitting function, FindFit (Wolfram Mathematica software, Illinois, USA) was used. Significant differences among the three groups for dose-dependent curves (FIGS. 10B and 7A) were determined by Two-way ANOVA (SigmaStat, California, USA). The results were considered statistically significant when P<0.05 (2-tailed).

[3] = test system: peripheral small arteries; assay: Mechanical tests and morphometry of peripheral small arteries; format: in vivo, Wistar rats
Protocol: as §2, §3
The peripheral arterial segment was cannulated on both ends and fully relaxed in Ca^2+ free HEPES-PSS. The arterial segment was preconditioned with five cyclic changes in pressure from 0 to 140 mmHg. The pressure was then increased in 20 mmHg step increments from 20 to 140 mmHg in a staircase manner. The passive pressure-diameter relation was recorded. After the mechanical testing, the vessel segment was cut transversely into three or four rings. Each ring was photographed in the no-load state and then cut radially by a scissor to reveal the zero-stress state. The cross section of each sector was photographed 30 minutes after the radial cut (details in Guo et al.). The morphological measurements of the in vitro axial length, inner and outer circumference, wall thickness (WT), and area in the no-load and zero-stress state were made from the images using a morphometric analysis system (SigmaScan).
The loaded inner radius of vessel was determined from the incompressibility assumption. The incompressibility condition for a cylindrical vessel can be expressed as:
where ro and ri are the outer and inner radii at the loaded state, respectively. λZ=l/lo is the stretch ratio in the axial direction where l and lo are the vessel length in the loaded and no-load state, respectively and Ao is the wall area in the no-load state. The wall thickness, WT at the loaded state was computed as the difference between the outer and inner radius of the vessel at various pressures as:
The volume compliance (CV) of the artery was determined by the slope of the pressure-volume relationship; i.e., CV=ΔV/ΔP. […] The normalized CSA compliance (CCSA) was determined similarly as CCSA=ΔCSA/(ΔP·CSA) at the physiological pressure as described in our previous publication.

[4] = test system: peripheral small arteries; assay: Elastin and collagen contents by multiphoton microscopy; format: in vivo, Wistar rats
Protocol: as §2
The elastin and collagen in small peripheral arteries were imaged by using a Multiphoton microscope (MPM) as described by Huan et al. Briefly, the arterial segment was fixed with 4% paraformaldehyde in phosphate buffer for 4 hours. The vessel was then transferred to a cryomold containing OCT embedding medium, and frozen in liquid nitrogen. Frozen transverse sections (7 μm) were cut onto glass slide and visualized by the MPM with a combined SHG/TPEF setup (Zeiss LSM 710 NLO). Serial optical sections were simultaneously captured by using the 520 nm line for elastin and the 415 nm line for collagen. All the images were taken under identical conditions of laser intensity, brightness, and contrast. Fluorescence intensity values were used as estimates of elastin and collagen concentration and quantitatively analyzed by Image J.

[5] = test system: ET-1; assay: Serum ET-1 level (ELISA); format: in vivo, Wistar rats; settings: FIG. 6; not significantly different from the sham
Protocol: as §2
Blood samples were collected in ethylenediaminetetraacetic acid (EDTA) tubes for all experimental rats. After centrifugation at 5000 rpm and 4° C. for 15 min, serum was immediately separated and stored at −80° C. until analysis. The circulating level of ET-1 in serum was measured by ELISA kit (R&D system, MN).

[6] = test system: left ventricle; assay: Heart and left ventricle weights; format: in vivo, Wistar rats; settings: compared to sham
Protocol: as §2, §3

[7] = Body weight; format: in vivo, Wistar rats; settings: Exp rats, 12 weeks aortic NCR then BQ-123 1 mg/kg/day continuous infusion 3 weeks; mean ± SEM
Protocol: as §1, §2

[8] = Exp rats, 12 weeks aortic NCR then BQ-123 1 mg/kg/day infusion 3 weeks, mean ± SEM
[9] = branch of femoral artery, Exp rats, 12 weeks aortic NCR then BQ-123 infusion 3 weeks, mean ± SEM

CC(C)C[C@@H]1NC(=O)[C@@H](C(C)C)NC(=O)[C@@H]2CCCN2C(=O)[C@@H](CC(=O)O)NC(=O)[C@@H](Cc2c[nH]c3ccccc23)NC1=O [BQ-123, 2-[(3R,6R,9S,12R,15S)-6-(1H-indol-3-ylmethyl)-9-(2-methylpropyl)-2,5,8,11,14-pentaoxo-12-propan-2-yl-1,4,7,10,13-pentazabicyclo[13.3.0]octadecan-3-yl]acetic acid] (cyclo(L[dW][dD]P[dV]))
Central aortic blood pressure, Diastolic pressure [1, 8]: 94.8 ± 3.2 mmHg | Central aortic blood pressure, Mean pressure [1, 8]: 115.0 ± 3.8 mmHg | Central aortic blood pressure, Pulse pressure [1, 8]: 38.5 ± 1.8 mmHg | Central aortic blood pressure, Systolic pressure [1, 8]: 133.3 ± 3.9 mmHg | Heart rate [1, 8]: 353.0 ± 6.9 beats/min | PWV [1, 8]: 4.1 ± 0.3 m/s | Peripheral aortic blood pressure, Diastolic pressure [1, 8]: 87.6 ± 3.5 mmHg | Peripheral aortic blood pressure, Mean pressure [1, 8]: 108.0 ± 4.5 mmHg | Peripheral aortic blood pressure, Pulse pressure [1, 8]: 45.8 ± 2.1 mmHg | Peripheral aortic blood pressure, Systolic pressure [1, 8]: 133.4 ± 5.1 mmHg | wall shear stress (WSS) in peripheral small arteries ([1]; FIG. 3B, after 3 weeks BQ-123 in NCR rats): returned to the sham level | Reverse/forward flow ratio ([1]; Qrev/Qfwd×100, Exp rats, 12 weeks aortic NCR then BQ-123 infusion 3 weeks, mean ± SEM): 7.6 ± 1.4 % | Peripheral flow rate, Forward flow [1, 9]: 0.34 ± 0.04 mL/min | Peripheral flow rate, Mean flow [1, 9]: 0.099 ± 0.008 mL/min | Peripheral flow rate, Reverse flow [1, 9]: -0.026 ± 0.007 mL/min | endothelium-dependent vasodilation in response to acetylcholine (dose-response curve) ([2]; FIG. 7A, vs aortic NCR group, p<0.05, 2-way ANOVA): totally recovered | contractions to phenylephrine (PE) ([2]; FIG. 10B, vs sham and aortic NCR): did not affect this response | vascular contraction to potassium chloride (KCl) ([2]; KCl 60 mmol/L, among the 3 groups, FIG. 10C): no significant difference | maximal endothelium-independent relaxation to sodium nitroprusside (SNP) ([2]; SNP 10^−5 mol/L, arteries of BQ-123 treated NCR rats (sham 96%, NCR 74%)): 98% | Emax ([2]; acetylcholine concentration-response curve, PE pre-contracted peripheral small arteries of BQ-123 treated NCR rats, mean ± SEM): 88.5 ± 7.9% | Phenylephrine Emax (%) ([2]; phenylephrine concentration-response curve, peripheral small arteries of BQ-123 treated NCR rats, mean ± SEM): 72.4 ± 6.3 negative log mol/L | wall thickness (WT, intima-media thickness) ([3]; compared to NCR group, not statistically significant, FIG. 4A): downward trend | wall thickness-to-radius (WTTR) ratio ([3]; compared to NCR group, not statistically significant, FIG. 4B): downward trend | normalized CSA compliance ([3]; compared with NCR group p=0.02, not fully restored vs sham (p=0.06), FIG. 4C): significantly increased | outer diameter of the peripheral small arteries ([3]; sham, NCR and BQ-123 groups, FIG. 10A): no changes | total collagen content of peripheral arteries ([4]; FIG. 5B, after 3 weeks BQ-123): returned to normal levels | elastin to collagen ratio ([4]; FIG. 5C, after 3 weeks of treatment): restored to normal levels | total elastin contents ([4]; between NCR, BQ-123 treatment and sham groups): No difference | serum ET-1 level [5]: restored to pre-intervention level | wet weights of the hearts [6]: did not change | LV weight/heart weight ratio (LV/HW) ([6]; p<0.05, FIG. 2): significant increase | Body Weight [7]: 641.3 ± 18.9 g
